Data set [1] has as its system albumin (HSA, BSA, FBS). The data set is described as follows: Biotin pulldown of albumin. The data set is classed as binding, human, bovine. The note with it: 1 mM biotinylated peptide, 0.03 mM HSA, BSA or FBS, 2 h 4 °C, streptavidin resin. As for the experimental part:
For immunoprecipitation (IP), 300 µg of lysate was mixed with 5 µg of human anti-PD-1 (#AF1086, R&D) or mouse anti-PD-L1 (#PA5-20343, Invitrogen-Thermo Fisher Scientific) at 4 °C for 2 h followed by 30 min incubation with 20 µL of Pierce™ Protein A/G Magnetic Beads (ThermoFisher Scientific; catalog #88802) at room temperature followed by Western blot to detect the interacted proteins. In the biotin pulldown procedure, 1 mM biotinylated peptides were incubated with 0.03 mM of albumin (BSA, HSA, the equivalent amount FBS) for 2 h at 4 °C followed by incubating with 50 µL Streptavidin resin (Genescript, Piscataway, NJ, USA) for 1 hr at room temperature, followed by SDS-PAGE to detect the bound albumin.

Data set [2] has as its system cells.
For data set [3] the following is noted: mouse, in vivo.
A short description of data set [4]: physchem. The note with it: aqueous buffer.
The target in data set [5] is T1, human serum albumin (human, UniProt P02768 25-609).
T1 construct: human serum albumin (HSA); also called HSA
Nature of the data set: pull-down; 1 mM biotinylated peptide with 0.03 mM albumin (HSA or BSA) for 2 h at 4 °C, then Streptavidin resin for 1 h at room temperature; bound albumin detected by SDS-PAGE. The note with it: both partners purified.

The target in data set [6] is T2, bovine serum albumin (bovine, UniProt P02769 25-607).
T2 construct: bovine serum albumin, used as BSA and as the albumin in an equivalent amount of FBS; also called BSA; albumin of fetal bovine serum (FBS); source: also as the albumin in fetal bovine serum (FBS)
Described as above. The settings on record: both partners purified.

Ends that are not written are not given here. Peptide text beside a SMILES is read from it. * marks the point of attachment. Biotin = O=C1N[C@H]2[C@H](CS[C@H]2CCCCC(=O)*)N1; Ahx = NCCCCCC(=O)O

T2 sequence (P02769 25-607): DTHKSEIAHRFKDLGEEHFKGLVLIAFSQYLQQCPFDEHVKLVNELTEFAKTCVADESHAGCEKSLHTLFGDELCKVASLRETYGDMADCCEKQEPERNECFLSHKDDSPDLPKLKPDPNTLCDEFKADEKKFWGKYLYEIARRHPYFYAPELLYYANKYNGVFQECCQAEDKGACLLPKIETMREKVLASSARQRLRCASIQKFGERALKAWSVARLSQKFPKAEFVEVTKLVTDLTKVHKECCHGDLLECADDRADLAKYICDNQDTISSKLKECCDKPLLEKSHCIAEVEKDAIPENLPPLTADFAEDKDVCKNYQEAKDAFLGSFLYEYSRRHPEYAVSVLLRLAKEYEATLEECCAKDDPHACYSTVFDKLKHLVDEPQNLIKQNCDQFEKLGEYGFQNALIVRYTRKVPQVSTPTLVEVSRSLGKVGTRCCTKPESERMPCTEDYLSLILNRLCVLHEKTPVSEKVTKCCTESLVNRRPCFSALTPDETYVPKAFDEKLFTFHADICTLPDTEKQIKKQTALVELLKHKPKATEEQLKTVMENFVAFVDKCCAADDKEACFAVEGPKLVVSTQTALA

Consider `CC[C@H](C)[C@H](NC(=O)[C@H](CCCNC(=N)N)NC(=O)[C@H](CC(C)C)NC(=O)[C@H](CC(N)=O)NC(=O)[C@H](CO)NC(=O)[C@@H](NC(=O)[C@@H](NC(=O)[C@H](CC(N)=O)NC(=O)[C@H](Cc1ccccc1)NC(=O)[C@H](CC(C)C)NC(=O)[C@H](CCCCN)NC(=O)[C@H](CCC(=O)O)NC(=O)[C@H](CCC(=O)O)NC(=O)[C@H](CCCNC(=N)N)NC(=O)CCCCCNC(=O)[C@H](CCC(=O)O)NC(=O)[C@H](Cc1ccc(O)cc1)NC(=O)[C@H](CCC(=O)O)NC(=O)[C@H](CCCCN)NC(=O)[C@H](CCC(=O)O)NC(=O)[C@H](Cc1ccc(O)cc1)NC(=O)[C@H](CCC(=O)O)NC(=O)CCCCCNC(=O)CCCC[C@@H]1SC[C@@H]2NC(=O)N[C@@H]21)C(C)C)[C@@H](C)O)C(=O)N[C@@H](CC(N)=O)C(=O)N[C@H](C(N)=O)[C@@H](C)O` [Biotin-EYEKEYE-L7N], for which the “Binding to albumin (pulldown, SDS-PAGE)” value in data set [1] was “no binding”.

Turning to `CC[C@H](C)[C@H](NC(=O)[C@H](CCCNC(=N)N)NC(=O)[C@H](CC(C)C)NC(=O)[C@H](CC(N)=O)NC(=O)[C@H](CO)NC(=O)[C@@H](NC(=O)[C@@H](NC(=O)[C@H](CC(N)=O)NC(=O)[C@H](Cc1ccccc1)NC(=O)[C@H](CC(C)C)NC(=O)[C@H](CCCCN)NC(=O)[C@H](CCC(=O)O)NC(=O)[C@H](CCC(=O)O)NC(=O)[C@H](CCCNC(=N)N)NC(=O)CCCCCNC(=O)CCCC[C@@H]1SC[C@@H]2NC(=O)N[C@@H]21)C(C)C)[C@@H](C)O)C(=O)N[C@@H](CC(N)=O)C(=O)N[C@H](C(N)=O)[C@@H](C)O` [Biotin-L7N] ({Biotin-Ahx}-REEKLFNVTSNLRINT-NH2), the “Binding to albumin (pulldown, SDS-PAGE)” value in data set [1] is on record as “no binding”.

Consider REEKLFNVTSNLRINT-NH2 [L7N], for which the Toxicity to cells result in data set [2] is recorded as “no significant toxicity”. Further, in data set [3], the “Immune reactions of mice” value is on record as “adverse immune reactions”.

Take REEKLFNVTSTLRINT-NH2 [L7]: the solubility in data set [4] was less than 10000 µg/mL.

B1: Biotin-PA-scramble (peptide)
peptide: EYEKEYETKLREIFVNLRTNSEN
modifications: biotin-ahx at the N-terminus; palmitic acid on the Lys side chain of EYEKEYE; ahx (6-aminohexanoic acid) between EYEKEYE and the peptide
notes: peptide tag that carries palmitic acid on its Lys; also called biotin–PA–scrambled peptide; PA-coupled scramble peptide; source: synthetic peptide (Fmoc chemistry); not shown: biotin, N-terminal, kept
As to B1, the binding result in data set [5] and in data set [6] was “binds” in each case.

Usually solubility stands for the concentration that dissolves in the medium under given conditions. The low end stands for little dissolved substance, the high end for much dissolved substance.

For the origin of these results see publication PMC11274521 (Cells, 2024).
